Reference: US20090299044A1 (priority 2006, published 2009)
Bridge positions count the residues as written; N and C are the ends. Peptide text beside a SMILES is read from it.

Key:
[1] = molecular target: T1, human Kv1.1 (HEK293) (Homo sapiens, UniProt Q09470); experiment: cell-based
T1 construct: expressed in transfected cells; host or cells: HEK293

[2] = molecular target: T2, human Kv1.3 (CHO) (Homo sapiens, UniProt P22001); experiment: cell-based
T2 construct: expressed in transfected cells; host or cells: CHO
T2 sequence (P22001 whole entry): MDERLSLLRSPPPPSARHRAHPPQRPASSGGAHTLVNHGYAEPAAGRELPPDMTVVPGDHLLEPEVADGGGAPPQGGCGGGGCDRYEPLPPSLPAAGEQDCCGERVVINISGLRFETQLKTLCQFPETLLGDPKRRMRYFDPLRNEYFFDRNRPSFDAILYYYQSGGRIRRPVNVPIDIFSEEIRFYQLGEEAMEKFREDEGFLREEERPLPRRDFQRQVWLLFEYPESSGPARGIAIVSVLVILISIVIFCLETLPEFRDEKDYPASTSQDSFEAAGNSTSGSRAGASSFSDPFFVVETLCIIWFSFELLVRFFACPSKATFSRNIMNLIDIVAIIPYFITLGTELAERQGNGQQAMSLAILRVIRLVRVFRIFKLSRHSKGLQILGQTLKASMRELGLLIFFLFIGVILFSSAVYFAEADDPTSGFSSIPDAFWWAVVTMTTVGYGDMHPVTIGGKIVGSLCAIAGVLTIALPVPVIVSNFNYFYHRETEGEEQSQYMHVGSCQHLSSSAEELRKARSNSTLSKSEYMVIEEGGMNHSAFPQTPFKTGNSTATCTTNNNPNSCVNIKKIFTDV

T1 sequence (Q09470 whole entry): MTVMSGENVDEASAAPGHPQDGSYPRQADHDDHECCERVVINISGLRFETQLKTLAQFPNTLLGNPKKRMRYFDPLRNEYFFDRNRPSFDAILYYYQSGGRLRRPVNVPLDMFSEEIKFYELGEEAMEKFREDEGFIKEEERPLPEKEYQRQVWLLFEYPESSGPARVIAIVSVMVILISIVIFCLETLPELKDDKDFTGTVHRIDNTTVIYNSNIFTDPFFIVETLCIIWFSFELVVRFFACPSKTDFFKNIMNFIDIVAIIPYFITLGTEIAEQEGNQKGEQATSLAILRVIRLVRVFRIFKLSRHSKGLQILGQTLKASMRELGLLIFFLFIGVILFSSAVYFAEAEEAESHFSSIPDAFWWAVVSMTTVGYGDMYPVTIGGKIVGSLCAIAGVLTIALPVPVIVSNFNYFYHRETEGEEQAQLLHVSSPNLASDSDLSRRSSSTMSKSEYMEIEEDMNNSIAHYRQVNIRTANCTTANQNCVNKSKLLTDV

SMILES | IC50 [1] [nM] | IC50 [2] [nM]
CC[C@H](C)[C@@H]1NC(=O)[C@H](CCCCN)NC(=O)[C@@H](NC(=O)[C@H](CCCCN)NC(=O)[C@@H](NC(=O)[C@H](CC(N)=O)NC(=O)[C@@H](NC(=O)[C@@H](NC(=O)[C@@H](NC(=O)CN)C(C)C)[C@@H](C)CC)[C@@H](C)CC)C(C)C)CSSC[C@@H]2NC(=O)[C@H](CCCCN)NC(=O)CNC(=O)[C@H](Cc3ccccc3)NC(=O)[C@H](CCCNC(=N)N)NC(=O)[C@H](CCSC)NC(=O)CNC(=O)[C@H](C)NC(=O)[C@H](CCCCN)NC(=O)[C@H](CCCNC(=N)N)NC(=O)[C@@H]3CSSC[C@@H](C(=O)N[C@H](C(=O)N4CCC[C@H]4C(=O)N[C@@H](CCCCN)C(=O)O)[C@@H](C)O)NC(=O)[C@H](Cc4c[nH]cn4)NC(=O)[C@H](CSSC[C@H](NC(=O)[C@H](CCC(N)=O)NC(=O)[C@H](CCCNC(=N)N)NC(=O)[C@H](CO)NC1=O)C(=O)N[C@@H](CC(C)C)C(=O)N[C@@H](CCC(=O)O)C(=O)N1CCC[C@H]1C(=O)N3)NC(=O)[C@H](CCCCN)NC(=O)CNC(=O)[C@H](CC(N)=O)NC(=O)[C@H](CCSC)NC2=O [K19R] (H-GVIINVKCKISRQCLEPCRKAGMRFGKCMNGKCHCTPK-OH; disulfide 8-28, 14-33, 18-35) | 0.00241 | 0.0126
CC[C@H](C)[C@@H]1NC(=O)[C@H](CCCCN)NC(=O)[C@@H](NC(=O)[C@H](CCCCN)NC(=O)[C@@H](NC(=O)[C@H](CC(N)=O)NC(=O)[C@@H](NC(=O)[C@@H](NC(=O)[C@@H](NC(=O)CN)C(C)C)[C@@H](C)CC)[C@@H](C)CC)C(C)C)CSSC[C@@H]2NC(=O)[C@H](CCCCN)NC(=O)CNC(=O)[C@H](Cc3ccccc3)NC(=O)[C@H](CCCNC(=N)N)NC(=O)[C@H](CCSC)NC(=O)CNC(=O)[C@H](C)NC(=O)[C@H](CCCCN)NC(=O)[C@H](CCCCN)NC(=O)[C@@H]3CSSC[C@@H](C(=O)N[C@H](C(=O)N4CCC[C@H]4C(=O)N[C@@H](CCCCN)C(=O)O)[C@@H](C)O)NC(=O)[C@H](CCCNC(=N)N)NC(=O)[C@H](CSSC[C@H](NC(=O)[C@H](CCC(N)=O)NC(=O)[C@H](CCCNC(=N)N)NC(=O)[C@H](CO)NC1=O)C(=O)N[C@@H](CC(C)C)C(=O)N[C@@H](CCC(=O)O)C(=O)N1CCC[C@H]1C(=O)N3)NC(=O)[C@H](CCCCN)NC(=O)CNC(=O)[C@H](CC(N)=O)NC(=O)[C@H](CCSC)NC2=O [H34R] (H-GVIINVKCKISRQCLEPCKKAGMRFGKCMNGKCRCTPK-OH; disulfide 8-28, 14-33, 18-35) | 0.00449 | 0.0136
CC[C@H](C)[C@@H]1NC(=O)[C@H](CCCCN)NC(=O)[C@@H](NC(=O)[C@H](CCCCN)NC(=O)[C@@H](NC(=O)[C@H](CC(N)=O)NC(=O)[C@@H](NC(=O)[C@H](CCCNC(=N)N)NC(=O)[C@@H](NC(=O)CN)C(C)C)[C@@H](C)CC)C(C)C)CSSC[C@@H]2NC(=O)[C@H](CCCCN)NC(=O)CNC(=O)[C@H](Cc3ccccc3)NC(=O)[C@H](CCCNC(=N)N)NC(=O)[C@H](CCSC)NC(=O)CNC(=O)[C@H](C)NC(=O)[C@H](CCCCN)NC(=O)[C@H](CCCCN)NC(=O)[C@@H]3CSSC[C@@H](C(=O)N[C@H](C(=O)N4CCC[C@H]4C(=O)N[C@@H](CCCCN)C(=O)O)[C@@H](C)O)NC(=O)[C@H](Cc4c[nH]cn4)NC(=O)[C@H](CSSC[C@H](NC(=O)[C@H](CCC(N)=O)NC(=O)[C@H](CCCNC(=N)N)NC(=O)[C@H](CO)NC1=O)C(=O)N[C@@H](CC(C)C)C(=O)N[C@@H](CCC(=O)O)C(=O)N1CCC[C@H]1C(=O)N3)NC(=O)[C@H](CCCCN)NC(=O)CNC(=O)[C@H](CC(N)=O)NC(=O)[C@H](CCSC)NC2=O [I3R] (H-GVRINVKCKISRQCLEPCKKAGMRFGKCMNGKCHCTPK-OH; disulfide 8-28, 14-33, 18-35) | 0.00247 | 0.0199
CC[C@H](C)[C@@H]1NC(=O)[C@H](CCCCN)NC(=O)[C@@H](NC(=O)[C@H](CCCCN)NC(=O)[C@@H](NC(=O)[C@H](CC(N)=O)NC(=O)[C@@H](NC(=O)[C@@H](NC(=O)[C@@H](NC(=O)CN)C(C)C)[C@@H](C)CC)[C@@H](C)CC)C(C)C)CSSC[C@@H]2NC(=O)[C@H](CCCCN)NC(=O)CNC(=O)[C@H](Cc3ccccc3)NC(=O)[C@H](CCCNC(=N)N)NC(=O)[C@H](CCSC)NC(=O)[C@H](C)NC(=O)[C@H](C)NC(=O)[C@H](CCCCN)NC(=O)[C@H](CCCCN)NC(=O)[C@@H]3CSSC[C@@H](C(=O)N[C@H](C(=O)N4CCC[C@H]4C(=O)N[C@@H](CCCCN)C(=O)O)[C@@H](C)O)NC(=O)[C@H](Cc4c[nH]cn4)NC(=O)[C@H](CSSC[C@H](NC(=O)[C@H](CCC(N)=O)NC(=O)[C@H](CCCNC(=N)N)NC(=O)[C@H](CO)NC1=O)C(=O)N[C@@H](CC(C)C)C(=O)N[C@@H](CCC(=O)O)C(=O)N1CCC[C@H]1C(=O)N3)NC(=O)[C@H](CCCCN)NC(=O)CNC(=O)[C@H](CC(N)=O)NC(=O)[C@H](CCSC)NC2=O [G22A] (H-GVIINVKCKISRQCLEPCKKAAMRFGKCMNGKCHCTPK-OH; disulfide 8-28, 14-33, 18-35) | > 3 | > 3
CC[C@H](C)[C@H](NC(=O)[C@H](C)NC(=O)[C@@H](NC(=O)CN)C(C)C)C(=O)N[C@@H](CC(N)=O)C(=O)N[C@H](C(=O)N[C@@H](CCCCN)C(=O)N[C@H]1CSSC[C@@H]2NC(=O)[C@H](CCCCN)NC(=O)CNC(=O)[C@H](Cc3ccccc3)NC(=O)[C@H](CCCNC(=N)N)NC(=O)[C@H](CCSC)NC(=O)CNC(=O)[C@H](C)NC(=O)[C@H](CCCCN)NC(=O)[C@H](CCCCN)NC(=O)[C@@H]3CSSC[C@@H](C(=O)N[C@H](C(=O)N4CCC[C@H]4C(=O)N[C@@H](CCCCN)C(=O)O)[C@@H](C)O)NC(=O)[C@H](Cc4c[nH]cn4)NC(=O)[C@H](CSSC[C@H](NC(=O)[C@H](CCC(N)=O)NC(=O)[C@H](CCCNC(=N)N)NC(=O)[C@H](CO)NC(=O)[C@H]([C@@H](C)CC)NC(=O)[C@H](CCCCN)NC1=O)C(=O)N[C@@H](CC(C)C)C(=O)N[C@@H](CCC(=O)O)C(=O)N1CCC[C@H]1C(=O)N3)NC(=O)[C@H](CCCCN)NC(=O)CNC(=O)[C@H](CC(N)=O)NC(=O)[C@H](CCSC)NC2=O)C(C)C [I3A] (H-GVAINVKCKISRQCLEPCKKAGMRFGKCMNGKCHCTPK-OH; disulfide 8-28, 14-33, 18-35) | 0.0106 | 0.0966
CC[C@H](C)[C@@H]1NC(=O)[C@H](CCCCN)NC(=O)[C@@H](NC(=O)[C@H](CCCCN)NC(=O)[C@@H](NC(=O)[C@H](CC(N)=O)NC(=O)[C@@H](NC(=O)[C@@H](NC(=O)[C@@H](NC(=O)CN)C(C)C)[C@@H](C)CC)[C@@H](C)CC)C(C)C)CSSC[C@@H]2NC(=O)[C@H](CCCCN)NC(=O)[C@H](C)NC(=O)[C@H](Cc3ccccc3)NC(=O)[C@H](CCCNC(=N)N)NC(=O)[C@H](CCSC)NC(=O)CNC(=O)[C@H](C)NC(=O)[C@H](CCCCN)NC(=O)[C@H](CCCCN)NC(=O)[C@@H]3CSSC[C@@H](C(=O)N[C@H](C(=O)N4CCC[C@H]4C(=O)N[C@@H](CCCCN)C(=O)O)[C@@H](C)O)NC(=O)[C@H](Cc4c[nH]cn4)NC(=O)[C@H](CSSC[C@H](NC(=O)[C@H](CCC(N)=O)NC(=O)[C@H](CCCNC(=N)N)NC(=O)[C@H](CO)NC1=O)C(=O)N[C@@H](CC(C)C)C(=O)N[C@@H](CCC(=O)O)C(=O)N1CCC[C@H]1C(=O)N3)NC(=O)[C@H](CCCCN)NC(=O)CNC(=O)[C@H](CC(N)=O)NC(=O)[C@H](CCSC)NC2=O [G26A] (H-GVIINVKCKISRQCLEPCKKAGMRFAKCMNGKCHCTPK-OH; disulfide 8-28, 14-33, 18-35) | 0.733 | 0.711
CC[C@H](C)[C@@H]1NC(=O)[C@H](CCC(=O)O)NC(=O)[C@@H](NC(=O)[C@H](CCCCN)NC(=O)[C@@H](NC(=O)[C@H](CC(N)=O)NC(=O)[C@@H](NC(=O)[C@@H](NC(=O)[C@@H](NC(=O)CN)C(C)C)[C@@H](C)CC)[C@@H](C)CC)C(C)C)CSSC[C@@H]2NC(=O)[C@H](CCCCN)NC(=O)CNC(=O)[C@H](Cc3ccccc3)NC(=O)[C@H](CCCNC(=N)N)NC(=O)[C@H](CCSC)NC(=O)CNC(=O)[C@H](C)NC(=O)[C@H](CCCCN)NC(=O)[C@H](CCCCN)NC(=O)[C@@H]3CSSC[C@@H](C(=O)N[C@H](C(=O)N4CCC[C@H]4C(=O)N[C@@H](CCCCN)C(=O)O)[C@@H](C)O)NC(=O)[C@H](Cc4c[nH]cn4)NC(=O)[C@H](CSSC[C@H](NC(=O)[C@H](CCC(N)=O)NC(=O)[C@H](CCCNC(=N)N)NC(=O)[C@H](CO)NC1=O)C(=O)N[C@@H](CC(C)C)C(=O)N[C@@H](CCC(=O)O)C(=O)N1CCC[C@H]1C(=O)N3)NC(=O)[C@H](CCCCN)NC(=O)CNC(=O)[C@H](CC(N)=O)NC(=O)[C@H](CCSC)NC2=O [K9E] (H-GVIINVKCEISRQCLEPCKKAGMRFGKCMNGKCHCTPK-OH; disulfide 8-28, 14-33, 18-35) | 0.111 | 0.0318
CC[C@H](C)[C@@H]1NC(=O)[C@H](CCCCN)NC(=O)[C@@H](NC(=O)[C@H](CCCCN)NC(=O)[C@@H](NC(=O)[C@H](CC(N)=O)NC(=O)[C@@H](NC(=O)[C@@H](NC(=O)[C@@H](NC(=O)CN)C(C)C)[C@@H](C)CC)[C@@H](C)CC)C(C)C)CSSC[C@@H]2NC(=O)[C@H](CCCCN)NC(=O)CNC(=O)[C@H](Cc3ccccc3)NC(=O)[C@H](CCCNC(=N)N)NC(=O)[C@H](CCSC)NC(=O)CNC(=O)[C@H](C)NC(=O)[C@H](CCCCN)NC(=O)[C@H](CCCCN)NC(=O)[C@@H]3CSSC[C@@H](C(=O)N[C@H](C(=O)N4CCC[C@H]4C(=O)N[C@@H](CCC(=O)O)C(=O)O)[C@@H](C)O)NC(=O)[C@H](Cc4c[nH]cn4)NC(=O)[C@H](CSSC[C@H](NC(=O)[C@H](CCC(N)=O)NC(=O)[C@H](CCCNC(=N)N)NC(=O)[C@H](CO)NC1=O)C(=O)N[C@@H](CC(C)C)C(=O)N[C@@H](CCC(=O)O)C(=O)N1CCC[C@H]1C(=O)N3)NC(=O)[C@H](CCCCN)NC(=O)CNC(=O)[C@H](CC(N)=O)NC(=O)[C@H](CCSC)NC2=O [K38E] (H-GVIINVKCKISRQCLEPCKKAGMRFGKCMNGKCHCTPE-OH; disulfide 8-28, 14-33, 18-35) | 0.0343 | 0.0258
